Measurements published in ChEMBL document CHEMBL4507319 (2021).

Key:
[1] = target: Protein kinase C delta type (Homo sapiens) (UniProt Q05655); details: Compound concentration 1000.0 nM
[2] = target: Vascular endothelial growth factor receptor 1 (Homo sapiens) (UniProt P17948); details: Compound concentration 1000.0 nM
[3] = target: Homeodomain-interacting protein kinase 2 (Homo sapiens) (UniProt Q9H2X6); details: Compound concentration 1000.0 nM
[4] = target: RAC-alpha serine/threonine-protein kinase (Homo sapiens) (UniProt P31749); details: Compound concentration 1000.0 nM
[5] = target: T1, Serine/threonine-protein kinase Nek1 (Homo sapiens) (UniProt Q96PY6); details: Compound concentration 1000.0 nM
T1 sequence (whole entry): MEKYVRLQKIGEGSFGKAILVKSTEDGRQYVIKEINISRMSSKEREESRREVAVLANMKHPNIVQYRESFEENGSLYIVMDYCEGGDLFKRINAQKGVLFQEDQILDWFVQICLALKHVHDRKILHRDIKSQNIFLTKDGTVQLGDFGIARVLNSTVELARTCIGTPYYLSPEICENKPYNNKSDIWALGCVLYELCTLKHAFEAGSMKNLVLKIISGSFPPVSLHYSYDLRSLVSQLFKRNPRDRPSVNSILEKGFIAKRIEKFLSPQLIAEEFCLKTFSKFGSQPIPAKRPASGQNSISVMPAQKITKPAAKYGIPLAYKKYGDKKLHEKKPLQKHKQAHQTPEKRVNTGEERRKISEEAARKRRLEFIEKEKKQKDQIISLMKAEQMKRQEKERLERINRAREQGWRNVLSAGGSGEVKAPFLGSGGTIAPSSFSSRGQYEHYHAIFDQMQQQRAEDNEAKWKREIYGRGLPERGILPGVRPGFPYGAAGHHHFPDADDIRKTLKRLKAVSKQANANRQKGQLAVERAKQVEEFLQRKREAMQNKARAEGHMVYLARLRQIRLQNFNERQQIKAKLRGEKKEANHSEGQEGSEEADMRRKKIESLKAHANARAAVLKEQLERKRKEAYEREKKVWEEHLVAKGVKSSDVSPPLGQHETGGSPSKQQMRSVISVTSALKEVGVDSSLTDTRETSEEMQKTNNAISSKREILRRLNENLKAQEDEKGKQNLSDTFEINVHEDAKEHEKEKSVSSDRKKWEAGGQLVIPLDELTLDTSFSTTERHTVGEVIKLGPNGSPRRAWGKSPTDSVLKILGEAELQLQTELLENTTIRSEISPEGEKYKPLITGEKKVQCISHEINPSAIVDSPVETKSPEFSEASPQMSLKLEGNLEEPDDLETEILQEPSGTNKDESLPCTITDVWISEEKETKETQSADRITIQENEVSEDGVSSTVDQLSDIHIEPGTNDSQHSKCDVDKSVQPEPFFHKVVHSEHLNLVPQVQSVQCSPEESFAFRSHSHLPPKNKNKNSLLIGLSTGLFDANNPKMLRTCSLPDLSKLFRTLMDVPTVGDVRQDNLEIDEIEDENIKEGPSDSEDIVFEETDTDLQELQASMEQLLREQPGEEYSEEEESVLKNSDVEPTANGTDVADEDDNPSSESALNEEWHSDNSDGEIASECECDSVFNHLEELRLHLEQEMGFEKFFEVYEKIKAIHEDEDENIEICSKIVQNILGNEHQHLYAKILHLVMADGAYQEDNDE

[6] = target: Phosphatidylinositol 4-kinase beta (Homo sapiens) (UniProt Q9UBF8); details: Compound concentration 1000.0 nM
[7] = target: Serine/threonine-protein kinase 10 (Homo sapiens) (UniProt O94804); details: Compound concentration 1000.0 nM
[8] = target: Delta-type opioid receptor (Homo sapiens) (UniProt P41143); details: Compound concentration 10.0 uM
[9] = target: Calcium/calmodulin-dependent protein kinase kinase 2 (Homo sapiens) (UniProt Q96RR4); details: Compound concentration 1000.0 nM
[10] = target: Tyrosine-protein kinase ABL2 (Homo sapiens) (UniProt P42684); details: Compound concentration 1000.0 nM
[11] = target: Casein kinase II subunit alpha (Homo sapiens) (UniProt P68400); details: Compound concentration 1000.0 nM
[12] = target: MAP kinase-activated protein kinase 2 (Homo sapiens) (UniProt P49137); details: Compound concentration 1000.0 nM
[13] = target: T2, Bone morphogenetic protein receptor type-2 (Homo sapiens) (UniProt Q13873); details: Compound concentration 1000.0 nM
T2 sequence (whole entry): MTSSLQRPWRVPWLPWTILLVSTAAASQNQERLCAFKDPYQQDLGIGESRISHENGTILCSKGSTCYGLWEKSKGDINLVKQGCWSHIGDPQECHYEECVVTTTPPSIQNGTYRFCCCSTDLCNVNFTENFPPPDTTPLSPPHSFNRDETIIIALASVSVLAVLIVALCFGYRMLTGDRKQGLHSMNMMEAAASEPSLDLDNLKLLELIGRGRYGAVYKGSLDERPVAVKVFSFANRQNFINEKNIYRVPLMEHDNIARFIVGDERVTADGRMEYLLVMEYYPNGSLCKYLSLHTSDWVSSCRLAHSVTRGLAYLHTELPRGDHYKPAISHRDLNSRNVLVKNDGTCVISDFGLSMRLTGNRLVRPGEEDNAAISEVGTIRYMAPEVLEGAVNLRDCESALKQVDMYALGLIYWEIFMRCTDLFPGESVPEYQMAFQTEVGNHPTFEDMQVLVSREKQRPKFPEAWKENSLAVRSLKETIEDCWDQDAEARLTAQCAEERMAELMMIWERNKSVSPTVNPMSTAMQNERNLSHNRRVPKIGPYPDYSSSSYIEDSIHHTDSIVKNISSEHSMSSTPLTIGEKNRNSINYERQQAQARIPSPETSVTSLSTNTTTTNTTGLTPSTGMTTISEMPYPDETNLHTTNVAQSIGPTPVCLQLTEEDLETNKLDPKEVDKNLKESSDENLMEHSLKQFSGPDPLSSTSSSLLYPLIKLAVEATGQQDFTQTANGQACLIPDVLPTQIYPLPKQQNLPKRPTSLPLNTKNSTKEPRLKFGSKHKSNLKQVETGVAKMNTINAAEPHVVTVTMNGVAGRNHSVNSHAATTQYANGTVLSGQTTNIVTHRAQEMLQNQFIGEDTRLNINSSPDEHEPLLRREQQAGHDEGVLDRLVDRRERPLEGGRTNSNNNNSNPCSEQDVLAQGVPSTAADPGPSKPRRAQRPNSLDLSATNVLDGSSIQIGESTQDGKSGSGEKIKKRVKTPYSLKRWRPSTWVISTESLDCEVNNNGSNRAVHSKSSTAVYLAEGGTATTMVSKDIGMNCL

[14] = target: Ribosomal protein S6 kinase alpha-6 (Homo sapiens) (UniProt Q9UK32); details: Compound concentration 1000.0 nM
Sequence of Ribosomal protein S6 kinase alpha-6 (Homo sapiens) (Q9UK32 whole entry): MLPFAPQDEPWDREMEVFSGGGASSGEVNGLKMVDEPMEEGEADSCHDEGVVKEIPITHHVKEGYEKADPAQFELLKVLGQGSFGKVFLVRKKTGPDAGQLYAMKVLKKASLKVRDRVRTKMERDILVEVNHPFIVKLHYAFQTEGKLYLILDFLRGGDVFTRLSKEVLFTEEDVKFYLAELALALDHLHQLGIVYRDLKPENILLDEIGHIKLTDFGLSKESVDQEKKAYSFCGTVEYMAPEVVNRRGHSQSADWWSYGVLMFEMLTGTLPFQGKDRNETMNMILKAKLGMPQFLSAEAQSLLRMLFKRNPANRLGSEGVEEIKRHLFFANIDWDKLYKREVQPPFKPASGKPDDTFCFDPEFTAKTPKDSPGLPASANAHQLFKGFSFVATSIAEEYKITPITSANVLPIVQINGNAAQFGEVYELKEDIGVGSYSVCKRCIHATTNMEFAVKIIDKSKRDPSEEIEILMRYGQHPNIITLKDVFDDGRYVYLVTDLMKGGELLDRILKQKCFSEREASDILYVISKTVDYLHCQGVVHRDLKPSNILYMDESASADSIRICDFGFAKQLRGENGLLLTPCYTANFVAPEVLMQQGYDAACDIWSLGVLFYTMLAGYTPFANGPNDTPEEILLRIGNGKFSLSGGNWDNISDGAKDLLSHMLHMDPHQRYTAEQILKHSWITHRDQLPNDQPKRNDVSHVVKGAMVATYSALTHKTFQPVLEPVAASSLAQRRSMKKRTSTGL

Sequence of RAC-alpha serine/threonine-protein kinase (Homo sapiens) (P31749 whole entry): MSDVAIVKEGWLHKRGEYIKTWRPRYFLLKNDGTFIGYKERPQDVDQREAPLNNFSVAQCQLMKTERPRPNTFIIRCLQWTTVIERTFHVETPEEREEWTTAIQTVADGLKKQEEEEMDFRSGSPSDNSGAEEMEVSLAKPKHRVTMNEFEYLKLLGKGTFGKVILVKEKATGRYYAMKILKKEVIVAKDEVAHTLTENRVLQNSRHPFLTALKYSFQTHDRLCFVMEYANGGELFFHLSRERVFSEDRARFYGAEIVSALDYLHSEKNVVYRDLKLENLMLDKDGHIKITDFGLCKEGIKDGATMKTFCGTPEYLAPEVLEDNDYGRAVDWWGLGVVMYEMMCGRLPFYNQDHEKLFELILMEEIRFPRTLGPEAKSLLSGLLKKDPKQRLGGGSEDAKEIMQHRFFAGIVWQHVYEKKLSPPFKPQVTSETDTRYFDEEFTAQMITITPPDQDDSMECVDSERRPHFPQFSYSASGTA
Sequence of Delta-type opioid receptor (Homo sapiens) (P41143 whole entry): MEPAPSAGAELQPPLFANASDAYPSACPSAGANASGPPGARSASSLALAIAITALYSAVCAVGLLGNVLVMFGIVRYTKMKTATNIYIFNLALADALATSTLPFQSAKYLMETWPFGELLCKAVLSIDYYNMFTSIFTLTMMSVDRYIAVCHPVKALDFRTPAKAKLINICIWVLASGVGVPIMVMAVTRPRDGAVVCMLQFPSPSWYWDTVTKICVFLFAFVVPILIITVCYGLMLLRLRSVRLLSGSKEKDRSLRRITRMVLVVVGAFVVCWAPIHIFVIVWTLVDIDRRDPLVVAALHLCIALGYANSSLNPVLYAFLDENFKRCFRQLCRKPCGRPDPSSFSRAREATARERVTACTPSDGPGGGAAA
Sequence of Homeodomain-interacting protein kinase 2 (Homo sapiens) (Q9H2X6 whole entry, looked up): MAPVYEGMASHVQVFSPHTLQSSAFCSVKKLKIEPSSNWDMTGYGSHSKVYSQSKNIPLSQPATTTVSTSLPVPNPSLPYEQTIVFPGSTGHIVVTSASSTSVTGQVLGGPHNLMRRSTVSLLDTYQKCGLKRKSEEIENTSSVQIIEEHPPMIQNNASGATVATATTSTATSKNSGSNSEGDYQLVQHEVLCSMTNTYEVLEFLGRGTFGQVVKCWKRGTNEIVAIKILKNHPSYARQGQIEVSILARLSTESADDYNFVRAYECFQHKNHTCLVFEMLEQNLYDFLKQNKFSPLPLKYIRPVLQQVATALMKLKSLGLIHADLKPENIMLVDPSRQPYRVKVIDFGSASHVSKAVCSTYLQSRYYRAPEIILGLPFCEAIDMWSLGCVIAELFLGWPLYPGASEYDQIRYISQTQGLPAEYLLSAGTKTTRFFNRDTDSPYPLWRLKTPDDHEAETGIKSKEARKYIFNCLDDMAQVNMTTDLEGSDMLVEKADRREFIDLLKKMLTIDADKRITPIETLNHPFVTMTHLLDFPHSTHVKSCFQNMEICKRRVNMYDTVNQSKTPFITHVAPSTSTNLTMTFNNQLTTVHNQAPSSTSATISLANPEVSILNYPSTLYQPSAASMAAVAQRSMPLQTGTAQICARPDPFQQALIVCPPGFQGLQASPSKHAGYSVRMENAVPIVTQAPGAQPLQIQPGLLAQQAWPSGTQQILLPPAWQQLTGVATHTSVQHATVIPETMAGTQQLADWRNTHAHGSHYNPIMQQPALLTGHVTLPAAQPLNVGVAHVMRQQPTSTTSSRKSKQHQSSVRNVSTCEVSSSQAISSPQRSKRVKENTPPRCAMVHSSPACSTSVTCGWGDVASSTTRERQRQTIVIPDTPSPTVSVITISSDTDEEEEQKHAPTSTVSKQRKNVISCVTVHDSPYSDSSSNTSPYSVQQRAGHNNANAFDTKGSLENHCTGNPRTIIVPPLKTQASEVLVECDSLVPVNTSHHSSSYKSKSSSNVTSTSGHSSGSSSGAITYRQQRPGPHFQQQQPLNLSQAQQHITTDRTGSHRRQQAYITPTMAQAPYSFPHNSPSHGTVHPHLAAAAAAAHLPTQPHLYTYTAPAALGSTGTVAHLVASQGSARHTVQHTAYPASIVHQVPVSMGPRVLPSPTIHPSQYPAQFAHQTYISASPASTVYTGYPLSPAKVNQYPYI
Sequence of Casein kinase II subunit alpha (Homo sapiens) (P68400 whole entry, looked up): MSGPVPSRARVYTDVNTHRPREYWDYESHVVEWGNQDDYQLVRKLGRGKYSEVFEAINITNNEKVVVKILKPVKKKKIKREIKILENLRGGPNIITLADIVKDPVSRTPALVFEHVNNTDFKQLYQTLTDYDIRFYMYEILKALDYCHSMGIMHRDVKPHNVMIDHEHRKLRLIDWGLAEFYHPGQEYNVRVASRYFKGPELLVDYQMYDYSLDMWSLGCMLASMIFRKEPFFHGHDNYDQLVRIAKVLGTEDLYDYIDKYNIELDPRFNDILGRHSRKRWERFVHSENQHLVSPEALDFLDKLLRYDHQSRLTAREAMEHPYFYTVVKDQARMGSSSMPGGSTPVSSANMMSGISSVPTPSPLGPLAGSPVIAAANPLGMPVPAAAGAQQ
Sequence of Phosphatidylinositol 4-kinase beta (Homo sapiens) (Q9UBF8 2-816 limits assumed): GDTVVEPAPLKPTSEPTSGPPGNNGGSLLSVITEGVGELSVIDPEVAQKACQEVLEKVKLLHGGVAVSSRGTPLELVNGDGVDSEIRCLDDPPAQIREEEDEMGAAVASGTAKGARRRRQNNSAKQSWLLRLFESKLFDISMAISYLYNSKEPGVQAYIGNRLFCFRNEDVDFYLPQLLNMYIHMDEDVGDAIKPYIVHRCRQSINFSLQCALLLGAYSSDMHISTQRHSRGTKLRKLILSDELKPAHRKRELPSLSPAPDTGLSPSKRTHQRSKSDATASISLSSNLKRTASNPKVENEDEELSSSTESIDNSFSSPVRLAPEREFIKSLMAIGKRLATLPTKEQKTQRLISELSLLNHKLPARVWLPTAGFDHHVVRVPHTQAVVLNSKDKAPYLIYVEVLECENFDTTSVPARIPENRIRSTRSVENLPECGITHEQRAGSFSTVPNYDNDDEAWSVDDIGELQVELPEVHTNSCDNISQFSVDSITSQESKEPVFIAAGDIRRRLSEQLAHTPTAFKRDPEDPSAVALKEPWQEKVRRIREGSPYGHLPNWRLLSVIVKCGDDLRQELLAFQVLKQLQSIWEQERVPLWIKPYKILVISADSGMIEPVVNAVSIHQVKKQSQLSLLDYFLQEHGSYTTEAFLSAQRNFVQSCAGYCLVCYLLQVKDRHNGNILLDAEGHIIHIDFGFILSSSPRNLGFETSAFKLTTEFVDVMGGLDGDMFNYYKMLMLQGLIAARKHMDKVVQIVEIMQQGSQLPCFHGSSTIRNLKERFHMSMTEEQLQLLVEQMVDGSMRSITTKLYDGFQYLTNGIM
Sequence of Calcium/calmodulin-dependent protein kinase kinase 2 (Homo sapiens) (Q96RR4 2-588 limits assumed): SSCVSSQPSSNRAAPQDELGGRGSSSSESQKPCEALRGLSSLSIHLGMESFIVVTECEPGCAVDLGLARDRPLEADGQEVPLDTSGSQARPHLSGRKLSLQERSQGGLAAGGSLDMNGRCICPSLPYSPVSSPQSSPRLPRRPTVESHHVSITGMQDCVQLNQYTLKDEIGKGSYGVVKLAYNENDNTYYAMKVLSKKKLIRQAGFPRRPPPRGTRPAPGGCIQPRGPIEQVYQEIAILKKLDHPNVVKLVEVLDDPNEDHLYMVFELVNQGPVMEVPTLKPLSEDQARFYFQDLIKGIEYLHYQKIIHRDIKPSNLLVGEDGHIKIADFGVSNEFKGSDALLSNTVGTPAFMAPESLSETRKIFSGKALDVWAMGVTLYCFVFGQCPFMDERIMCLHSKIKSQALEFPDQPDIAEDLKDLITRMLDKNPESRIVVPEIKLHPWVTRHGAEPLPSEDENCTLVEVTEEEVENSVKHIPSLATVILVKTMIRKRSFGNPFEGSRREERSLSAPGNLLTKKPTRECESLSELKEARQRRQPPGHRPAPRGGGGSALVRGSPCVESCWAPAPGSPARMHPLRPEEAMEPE
Sequence of MAP kinase-activated protein kinase 2 (Homo sapiens) (P49137 whole entry, looked up): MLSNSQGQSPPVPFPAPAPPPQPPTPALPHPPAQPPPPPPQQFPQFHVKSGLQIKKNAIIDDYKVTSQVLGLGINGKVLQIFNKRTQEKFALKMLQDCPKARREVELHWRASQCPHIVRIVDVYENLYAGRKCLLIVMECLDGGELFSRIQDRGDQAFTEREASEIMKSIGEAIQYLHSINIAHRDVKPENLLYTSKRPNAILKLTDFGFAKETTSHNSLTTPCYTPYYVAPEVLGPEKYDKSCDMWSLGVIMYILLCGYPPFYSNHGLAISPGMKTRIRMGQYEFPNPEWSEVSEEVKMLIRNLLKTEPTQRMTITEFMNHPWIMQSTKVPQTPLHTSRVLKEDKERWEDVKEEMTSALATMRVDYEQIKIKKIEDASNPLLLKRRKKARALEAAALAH

Compound	residual activity [1] [%]	residual activity [2] [%]	residual activity [3] [%]	residual activity [4] [%]	residual activity [5] [%]	residual activity [6] [%]	residual activity [7] [%]	inhibition [8] [%]	residual activity [9] [%]	residual activity [10] [%]	residual activity [11] [%]	residual activity [12] [%]	residual activity [13] [%]	residual activity [14] [%]
CCc1ccccc1C(=O)Nc1n[nH]c2c(C)c(F)c(C3C(C#N)=C(C)N(C)C(C)=C3C#N)cc12 [BAY-3827]	55	72	100	75	100	100	100	20.5	95	92	100	100	100	2.9
CC1=C(C#N)C(c2ccc3c(c2)c(NC(=O)c2ccccc2C)nn3C)C(C#N)=C(C)N1 [BAY-974]	100	100	73	94	100	30	68	17.7	100	99	63	84	79	100
